Experiments:
Settings in all cases: compound at 10 μM
Human Melanocortin (MC4) = biological target: T1, Human Melanocortin (MC4) (Homo sapiens, UniProt P32245); experiment: Radioligand binding, human melanocortin MC4 membranes, FlashPlate, [125I]-NDP-αMSH
T1 construct: purchased Perkin Elmer Biosignal
In short: (§1)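 Cloned human receptor membranes were coated onto FlashPlate wells and incubated with radioligand and compound (added from a 0.5 mM DMSO daughter plate) for 1 hour at room temperature in the dark. Scintillation counting gave percent inhibition, with DMSO defining total and reference ligand defining non-specific binding.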

Human melanocortin (MC5) = biological target: T2, Human melanocortin (MC5) (Homo sapiens, UniProt P33032); experiment: Radioligand binding, human melanocortin MC5 membranes, FlashPlate, [125I]-NDP-αMSH
T2 construct: purchased Perkin Elmer Biosignal
In short: as §1

Human μ-opioid (MOP) = biological target: T3, Human μ-opioid (MOP) (Homo sapiens, UniProt P35372); experiment: Radioligand binding, human μ-opioid (MOP) membranes, FlashPlate, [3H]-Naloxone
T3 construct: purchased Perkin Elmer Biosignal
In short: as §1

Mouse urotensin (mUR2) = biological target: T4, Mouse urotensin (mUR2) (Mus musculus, UniProt Q8VIH9); experiment: Radioligand binding, mouse urotensin mUR2 membranes, FlashPlate, [125I]-Urotensin II
T4 construct: purchased Perkin Elmer Biosignal
T4 sequence (Q8VIH9 1-385): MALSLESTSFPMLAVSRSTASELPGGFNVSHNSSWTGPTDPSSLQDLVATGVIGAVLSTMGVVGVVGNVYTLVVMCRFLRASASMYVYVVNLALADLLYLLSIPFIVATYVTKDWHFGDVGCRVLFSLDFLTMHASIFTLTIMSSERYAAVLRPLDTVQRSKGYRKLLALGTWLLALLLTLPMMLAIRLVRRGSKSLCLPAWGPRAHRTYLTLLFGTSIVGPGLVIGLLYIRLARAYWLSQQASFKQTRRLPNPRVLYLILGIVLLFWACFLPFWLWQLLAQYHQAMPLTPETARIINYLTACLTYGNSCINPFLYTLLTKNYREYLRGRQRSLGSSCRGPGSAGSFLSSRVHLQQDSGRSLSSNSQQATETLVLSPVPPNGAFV
In short: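 Cloned mouse urotensin (mUR2) receptor membranes from Perkin Elmer Biosignal were immobilized in FlashPlate microplates using a proprietary coating. Each well got 19.5 μl buffer, then 0.5 μl of DMSO, reference ligand, or compound. Adding 5 μl of [125I]-Urotensin II, diluted to 5× final concentration in binding buffer, started binding. Plates were sealed with TopSeal-A and incubated 1 hour at room temperature in the dark. Wells were counted for 30 seconds each on a TopCount after a 60-second delay, and percentage inhibition was calculated.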

Human opioid (ORL1) = biological target: T5, Human opioid (ORL1) (Homo sapiens, UniProt P41146); experiment: Radioligand binding, human opioid ORL1 membranes, FlashPlate, [125I]-Nociceptin
T5 construct: purchased Perkin Elmer Biosignal
In short: as §1

Human δ-opioid (DOP) = biological target: T6, Human δ-opioid (DOP) (Homo sapiens, UniProt P41143); experiment: Radioligand binding, human δ-opioid (DOP) membranes, FlashPlate, [3H]-Bremazocine
T6 construct: purchased Perkin Elmer Biosignal
In short: as §1

Human Melanocortin (MC3) = biological target: T7, Human Melanocortin (MC3) (Homo sapiens, UniProt P41968); experiment: Radioligand binding, human melanocortin MC3 membranes, FlashPlate, [125I]-NDP-αMSH
T7 construct: purchased Perkin Elmer Biosignal
In short: as §1

[1] = biological target: T8, Human melanin-concentrating hormone (MCH1) (Homo sapiens, UniProt Q99705); experiment: Radioligand binding, human melanin-concentrating hormone MCH1 membranes, FlashPlate, [125I]-S36057
T8 construct: purchased Perkin Elmer Biosignal
In short: as §1

Human κ-Opioid (KOP) = biological target: T9, Human κ-Opioid (KOP) (Homo sapiens, UniProt P41145); experiment: Radioligand binding, human κ-opioid (KOP) membranes, filtration, [3H]-Diprenorphine
T9 construct: purchased Perkin Elmer Biosignal
In short: (§2)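 Filtration binding on cloned human receptor membranes (1 Unit/well), [125I]-Substance P for NK1 and [3H]-Diprenorphine for KOP, 1 h at room temperature. Filters PEI-presoaked, washed with cold 50 mM Tris-HCl pH 7.4, counted by scintillation; percent inhibition calculated, reference ligand defining non-specific binding.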

Human neurokinin (NK1) = biological target: T10, Human neurokinin (NK1) (Homo sapiens, UniProt P25103); experiment: Radioligand binding, human neurokinin NK1 membranes, filtration, [125I]-Substance P
T10 construct: purchased Perkin Elmer Biosignal
In short: as §2

[2] = biological target: T11, Human neuropeptide Y (NPY-Y1) (Homo sapiens, UniProt P25929); experiment: Radioligand binding, human neuropeptide Y NPY-Y1 membranes, FlashPlate, [125I]-PYY
T11 construct: purchased Perkin Elmer Biosignal
T11 sequence (P25929 1-384): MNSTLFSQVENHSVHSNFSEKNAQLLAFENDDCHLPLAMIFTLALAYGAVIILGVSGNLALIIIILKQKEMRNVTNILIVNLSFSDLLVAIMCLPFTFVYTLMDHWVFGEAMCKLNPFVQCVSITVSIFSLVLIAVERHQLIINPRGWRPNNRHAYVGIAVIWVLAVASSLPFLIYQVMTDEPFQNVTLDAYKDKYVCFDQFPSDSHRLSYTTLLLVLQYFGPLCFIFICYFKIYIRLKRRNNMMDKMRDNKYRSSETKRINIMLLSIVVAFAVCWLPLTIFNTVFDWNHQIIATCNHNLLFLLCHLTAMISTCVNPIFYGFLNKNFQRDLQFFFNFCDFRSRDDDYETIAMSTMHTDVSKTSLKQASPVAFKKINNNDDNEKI
In short: as §1

[3] = [125I]-Urotensin II, FlashPlate

T1 sequence (P32245 whole entry): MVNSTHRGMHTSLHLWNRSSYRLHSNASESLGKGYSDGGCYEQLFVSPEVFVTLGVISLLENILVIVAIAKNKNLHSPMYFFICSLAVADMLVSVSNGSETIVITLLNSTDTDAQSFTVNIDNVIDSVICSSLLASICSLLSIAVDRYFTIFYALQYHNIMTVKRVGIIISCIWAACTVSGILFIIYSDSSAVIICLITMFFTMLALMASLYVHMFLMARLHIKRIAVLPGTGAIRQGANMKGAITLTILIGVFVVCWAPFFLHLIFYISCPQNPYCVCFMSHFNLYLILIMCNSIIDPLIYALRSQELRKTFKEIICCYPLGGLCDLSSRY
T2 sequence (P33032 whole entry): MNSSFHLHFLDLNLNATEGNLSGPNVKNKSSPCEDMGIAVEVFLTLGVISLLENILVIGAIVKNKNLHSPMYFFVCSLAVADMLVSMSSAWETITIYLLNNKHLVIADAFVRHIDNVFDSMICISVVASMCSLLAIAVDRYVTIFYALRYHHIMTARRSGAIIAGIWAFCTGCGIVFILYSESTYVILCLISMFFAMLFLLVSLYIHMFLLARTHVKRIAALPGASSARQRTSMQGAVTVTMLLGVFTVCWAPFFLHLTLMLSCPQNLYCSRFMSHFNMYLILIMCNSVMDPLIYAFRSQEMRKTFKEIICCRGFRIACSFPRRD
T10 sequence (P25103 whole entry): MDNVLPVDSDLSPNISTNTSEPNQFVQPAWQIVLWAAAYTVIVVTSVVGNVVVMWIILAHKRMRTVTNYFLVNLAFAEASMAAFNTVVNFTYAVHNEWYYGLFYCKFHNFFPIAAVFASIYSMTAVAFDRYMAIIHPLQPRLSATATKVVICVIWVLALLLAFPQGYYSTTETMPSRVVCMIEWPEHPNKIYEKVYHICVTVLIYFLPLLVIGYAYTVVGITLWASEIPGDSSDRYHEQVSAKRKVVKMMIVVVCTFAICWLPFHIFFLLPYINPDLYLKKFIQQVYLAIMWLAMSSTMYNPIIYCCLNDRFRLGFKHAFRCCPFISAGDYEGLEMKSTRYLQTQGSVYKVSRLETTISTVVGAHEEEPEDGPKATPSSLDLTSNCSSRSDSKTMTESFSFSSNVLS
T5 sequence (P41146 whole entry): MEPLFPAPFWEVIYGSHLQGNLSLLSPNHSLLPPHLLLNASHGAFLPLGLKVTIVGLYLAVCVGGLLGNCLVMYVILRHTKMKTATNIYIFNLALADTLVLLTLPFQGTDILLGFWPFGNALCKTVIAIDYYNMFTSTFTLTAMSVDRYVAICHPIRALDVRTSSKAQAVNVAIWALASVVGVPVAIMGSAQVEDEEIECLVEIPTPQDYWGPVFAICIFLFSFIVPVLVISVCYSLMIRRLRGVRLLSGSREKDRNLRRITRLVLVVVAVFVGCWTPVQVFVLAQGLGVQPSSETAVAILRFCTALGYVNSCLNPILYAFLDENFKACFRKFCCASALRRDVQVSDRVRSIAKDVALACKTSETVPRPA
T8 sequence (Q99705 whole entry): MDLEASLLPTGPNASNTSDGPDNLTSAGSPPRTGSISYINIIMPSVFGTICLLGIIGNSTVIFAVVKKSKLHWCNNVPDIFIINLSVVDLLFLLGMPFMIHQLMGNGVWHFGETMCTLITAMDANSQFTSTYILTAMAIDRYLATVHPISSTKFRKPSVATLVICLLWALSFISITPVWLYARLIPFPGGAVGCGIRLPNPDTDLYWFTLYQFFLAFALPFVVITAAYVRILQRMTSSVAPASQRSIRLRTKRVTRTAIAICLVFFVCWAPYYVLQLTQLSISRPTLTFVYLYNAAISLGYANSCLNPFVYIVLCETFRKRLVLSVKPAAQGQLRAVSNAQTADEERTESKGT
T6 sequence (P41143 whole entry): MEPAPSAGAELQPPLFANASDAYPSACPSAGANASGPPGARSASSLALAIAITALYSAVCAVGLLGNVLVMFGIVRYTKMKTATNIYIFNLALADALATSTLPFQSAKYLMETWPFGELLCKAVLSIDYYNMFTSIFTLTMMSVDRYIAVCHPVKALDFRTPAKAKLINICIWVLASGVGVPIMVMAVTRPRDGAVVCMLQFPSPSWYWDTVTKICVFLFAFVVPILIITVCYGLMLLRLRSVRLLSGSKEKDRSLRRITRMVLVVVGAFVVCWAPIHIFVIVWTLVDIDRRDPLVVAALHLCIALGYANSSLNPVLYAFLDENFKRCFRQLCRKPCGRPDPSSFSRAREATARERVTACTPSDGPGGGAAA
T3 sequence (P35372 whole entry): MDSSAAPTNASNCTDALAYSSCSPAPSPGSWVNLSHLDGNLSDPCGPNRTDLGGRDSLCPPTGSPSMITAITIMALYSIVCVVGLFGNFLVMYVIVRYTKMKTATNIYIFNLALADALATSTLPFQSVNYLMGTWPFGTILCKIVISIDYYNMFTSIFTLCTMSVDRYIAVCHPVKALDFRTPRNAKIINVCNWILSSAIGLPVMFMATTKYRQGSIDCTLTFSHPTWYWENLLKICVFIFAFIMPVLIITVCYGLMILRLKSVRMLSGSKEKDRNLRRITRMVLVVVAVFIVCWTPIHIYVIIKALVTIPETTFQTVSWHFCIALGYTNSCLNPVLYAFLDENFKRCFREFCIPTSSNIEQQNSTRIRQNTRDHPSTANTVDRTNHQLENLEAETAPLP
T9 sequence (P41145 whole entry): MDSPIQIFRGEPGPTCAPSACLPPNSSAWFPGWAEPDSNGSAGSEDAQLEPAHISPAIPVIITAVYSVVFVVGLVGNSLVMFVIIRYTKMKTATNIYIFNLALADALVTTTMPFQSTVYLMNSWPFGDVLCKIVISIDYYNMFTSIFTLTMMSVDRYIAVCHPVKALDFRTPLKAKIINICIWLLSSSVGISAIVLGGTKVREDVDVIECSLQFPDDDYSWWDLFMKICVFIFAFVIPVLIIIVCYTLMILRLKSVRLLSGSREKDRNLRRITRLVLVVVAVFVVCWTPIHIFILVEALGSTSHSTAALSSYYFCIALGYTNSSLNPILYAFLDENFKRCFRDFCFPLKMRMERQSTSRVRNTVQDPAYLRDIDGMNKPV
T7 sequence (P41968 whole entry): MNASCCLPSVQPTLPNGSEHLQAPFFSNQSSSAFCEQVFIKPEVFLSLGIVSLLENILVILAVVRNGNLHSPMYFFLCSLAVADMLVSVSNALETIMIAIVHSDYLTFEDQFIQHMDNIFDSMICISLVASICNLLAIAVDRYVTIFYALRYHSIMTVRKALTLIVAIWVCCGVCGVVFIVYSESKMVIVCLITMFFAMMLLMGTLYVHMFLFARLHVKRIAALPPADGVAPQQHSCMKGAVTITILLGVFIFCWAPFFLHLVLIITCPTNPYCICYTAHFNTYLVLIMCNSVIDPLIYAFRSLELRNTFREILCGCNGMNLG

## COCC1OC(OCc2ccc3ccccc3c2)C(NC(=O)CNC(=N)N)C(OCc2ccc(-c3ccccc3)cc2)C1O (stereo not shown) [compound 242]
Human Melanocortin (MC4); [125I]-NDP-αMSH, FlashPlate
  A4: inhibition of radioligand binding: + (“+” indicates greater than 50% inhibition at 10 μM)
Human melanocortin (MC5); [125I]-NDP-αMSH, FlashPlate
  A5: inhibition of radioligand binding: + (“+” indicates greater than 50% inhibition at 10 μM)
Human μ-opioid (MOP); [3H]-Naloxone, FlashPlate
  A7: inhibition of radioligand binding: − (“−” indicates less than 50% inhibition at 10 μM)
Mouse urotensin (mUR2); [3]
  A11: inhibition of radioligand binding: − (“−” indicates less than 50% inhibition at 10 μM)
Human opioid (ORL1); [125I]-Nociceptin, FlashPlate
  A10: inhibition of radioligand binding: − (“−” indicates less than 50% inhibition at 10 μM)
Human δ-opioid (DOP); [3H]-Bremazocine, FlashPlate
  A1: inhibition of radioligand binding: − (“−” indicates less than 50% inhibition at 10 μM)
Human Melanocortin (MC3); [125I]-NDP-αMSH, FlashPlate
  A3: inhibition of radioligand binding: + (“+” indicates greater than 50% inhibition at 10 μM)
[1]; [125I]-S36057, FlashPlate
  A6: inhibition of radioligand binding: − (“−” indicates less than 50% inhibition at 10 μM)
Human κ-Opioid (KOP); [3H]-Diprenorphine, filtration
  A2: inhibition of radioligand binding: − (“−” indicates less than 50% inhibition at 10 μM)
Human neurokinin (NK1); [125I]-Substance P, filtration
  A8: inhibition of radioligand binding: + (“+” indicates greater than 50% inhibition at 10 μM)
[2]; [125I]-PYY, FlashPlate
  A9: inhibition of radioligand binding: − (“−” indicates less than 50% inhibition at 10 μM)

## NCCC(=O)N[C@H]1C(OCc2ccc3ccccc3c2)O[C@H](COCc2ccc3ccccc3c2)[C@@H](O)[C@@H]1OCc1ccc(Cl)cc1 (stereo partly shown) [compound 437]
Human Melanocortin (MC4); [125I]-NDP-αMSH, human MC4 membranes
  A4: inhibition of radioligand binding: + (“+” indicates greater than 50% inhibition at 10 μM)
Human melanocortin (MC5); [125I]-NDP-αMSH, human MC5 membranes
  A5: inhibition of radioligand binding: + (“+” indicates greater than 50% inhibition at 10 μM)
Human μ-opioid (MOP); [3H]-Naloxone, human MOP membranes
  A7: inhibition of radioligand binding: − (“−” indicates less than 50% inhibition at 10 μM)
Mouse urotensin (mUR2); [125I]-Urotensin II, mouse mUR2 membranes
  A11: inhibition of radioligand binding: − (“−” indicates less than 50% inhibition at 10 μM)
Human opioid (ORL1); [125I]-Nociceptin, human ORL1 membranes
  A10: inhibition of radioligand binding: − (“−” indicates less than 50% inhibition at 10 μM)
Human δ-opioid (DOP); [3H]-Bremazocine, human DOP membranes
  A1: inhibition of radioligand binding: − (“−” indicates less than 50% inhibition at 10 μM)
Human Melanocortin (MC3); [125I]-NDP-αMSH, human MC3 membranes
  A3: inhibition of radioligand binding: + (“+” indicates greater than 50% inhibition at 10 μM)
[1]; [125I]-S36057, human MCH1 membranes
  A6: inhibition of radioligand binding: + (“+” indicates greater than 50% inhibition at 10 μM)
Human κ-Opioid (KOP); [3H]-Diprenorphine, human KOP membranes
  A2: inhibition of radioligand binding: − (“−” indicates less than 50% inhibition at 10 μM)
Human neurokinin (NK1); [125I]-Substance P, human NK1 membranes
  A8: inhibition of radioligand binding: + (“+” indicates greater than 50% inhibition at 10 μM)
[2]; [125I]-PYY, human NPY-Y1 membranes
  A9: inhibition of radioligand binding: − (“−” indicates less than 50% inhibition at 10 μM)

## CO[C@H]1[C@H](O)[C@@H](COCc2cccc(O)c2)OC(OCc2ccc3ccccc3c2)[C@@H]1NC(=O)CNC(=N)N (stereo partly shown) [compound 150]
Human Melanocortin (MC4); [125I]-NDP-αMSH
  A4 radioligand binding, percentage inhibition: − (“−” indicates less than 50% inhibition at 10 μM)
Human melanocortin (MC5); [125I]-NDP-αMSH
  A5 radioligand binding, percentage inhibition: + (“+” indicates greater than 50% inhibition at 10 μM)
Human μ-opioid (MOP); [3H]-Naloxone
  A7 radioligand binding, percentage inhibition: + (“+” indicates greater than 50% inhibition at 10 μM)
Mouse urotensin (mUR2); [125I]-Urotensin II
  A11 radioligand binding, percentage inhibition: − (“−” indicates less than 50% inhibition at 10 μM)
Human opioid (ORL1); [125I]-Nociceptin
  A10 radioligand binding, percentage inhibition: − (“−” indicates less than 50% inhibition at 10 μM)
Human δ-opioid (DOP); [3H]-Bremazocine
  A1 radioligand binding, percentage inhibition: − (“−” indicates less than 50% inhibition at 10 μM)
Human Melanocortin (MC3); [125I]-NDP-αMSH
  A3 radioligand binding, percentage inhibition: − (“−” indicates less than 50% inhibition at 10 μM)
[1]; [125I]-S36057
  A6 radioligand binding, percentage inhibition: − (“−” indicates less than 50% inhibition at 10 μM)
Human κ-Opioid (KOP); [3H]-Diprenorphine
  A2 radioligand binding, percentage inhibition: + (“+” indicates greater than 50% inhibition at 10 μM)
Human neurokinin (NK1); [125I]-Substance P
  A8 radioligand binding, percentage inhibition: − (“−” indicates less than 50% inhibition at 10 μM)
[2]; [125I]-PYY
  A9 radioligand binding, percentage inhibition: − (“−” indicates less than 50% inhibition at 10 μM)

## CSC1OC(COCc2ccc(-c3ccccc3)cc2)C(O)C(OCc2ccccc2)C1NC(=O)CCCNC(=N)N (stereo not shown) [compound 259]
Human Melanocortin (MC4); [125I]-NDP-αMSH, FlashPlate
  A4: inhibition of radioligand binding: + (“+” indicates greater than 50% inhibition at 10 μM)
Human melanocortin (MC5); [125I]-NDP-αMSH, FlashPlate
  A5: inhibition of radioligand binding: − (“−” indicates less than 50% inhibition at 10 μM)
Human μ-opioid (MOP); [3H]-Naloxone, FlashPlate
  A7: inhibition of radioligand binding: − (“−” indicates less than 50% inhibition at 10 μM)
Mouse urotensin (mUR2); [3]
  A11: inhibition of radioligand binding: − (“−” indicates less than 50% inhibition at 10 μM)
Human opioid (ORL1); [125I]-Nociceptin, FlashPlate
  A10: inhibition of radioligand binding: − (“−” indicates less than 50% inhibition at 10 μM)
Human δ-opioid (DOP); [3H]-Bremazocine, FlashPlate
  A1: inhibition of radioligand binding: − (“−” indicates less than 50% inhibition at 10 μM)
Human Melanocortin (MC3); [125I]-NDP-αMSH, FlashPlate
  A3: inhibition of radioligand binding: − (“−” indicates less than 50% inhibition at 10 μM)
[1]; [125I]-S36057, FlashPlate
  A6: inhibition of radioligand binding: − (“−” indicates less than 50% inhibition at 10 μM)
Human κ-Opioid (KOP); [3H]-Diprenorphine, filtration
  A2: inhibition of radioligand binding: − (“−” indicates less than 50% inhibition at 10 μM)
Human neurokinin (NK1); [125I]-Substance P, filtration
  A8: inhibition of radioligand binding: + (“+” indicates greater than 50% inhibition at 10 μM)
[2]; [125I]-PYY, FlashPlate
  A9: inhibition of radioligand binding: − (“−” indicates less than 50% inhibition at 10 μM)

## CO[C@H]1[C@H](O)[C@@H](COCc2ccc3ccccc3c2)OC(OCc2ccccc2)[C@@H]1NC(=O)CCNC(=N)N (stereo partly shown) [compound 87]
Human Melanocortin (MC4); human melanocortin MC4 membranes
  A4 radioligand binding inhibition: − (“−” indicates less than 50% inhibition at 10 μM)
Human melanocortin (MC5); human melanocortin MC5 membranes
  A5 radioligand binding inhibition: − (“−” indicates less than 50% inhibition at 10 μM)
Human μ-opioid (MOP); human μ-opioid (MOP) membranes
  A7 radioligand binding inhibition: − (“−” indicates less than 50% inhibition at 10 μM)
Mouse urotensin (mUR2); mouse urotensin mUR2 membranes
  A11 radioligand binding inhibition: − (“−” indicates less than 50% inhibition at 10 μM)
Human opioid (ORL1); human ORL1 membranes
  A10 radioligand binding inhibition: − (“−” indicates less than 50% inhibition at 10 μM)
Human δ-opioid (DOP); human δ-opioid (DOP) membranes
  A1 radioligand binding inhibition: − (“−” indicates less than 50% inhibition at 10 μM)
Human Melanocortin (MC3); human melanocortin MC3 membranes
  A3 radioligand binding inhibition: − (“−” indicates less than 50% inhibition at 10 μM)
[1]; human MCH1 membranes
  A6 radioligand binding inhibition: − (“−” indicates less than 50% inhibition at 10 μM)
Human κ-Opioid (KOP); human κ-opioid (KOP) membranes
  A2 radioligand binding inhibition: − (“−” indicates less than 50% inhibition at 10 μM)
Human neurokinin (NK1); human neurokinin NK1 membranes
  A8 radioligand binding inhibition: + (“+” indicates greater than 50% inhibition at 10 μM)
[2]; human NPY-Y1 membranes
  A9 radioligand binding inhibition: − (“−” indicates less than 50% inhibition at 10 μM)

Reference: US20080009418A1, “Selective Inhibitors” (Alchemia LTD., priority 2004, published 2008)
